Laboratory results: the supplement of paper PMC3974653
Structures can show the parent of a compound that is named as a salt.

test system: MTT (mouse pheochromocytoma); test: IC50 of cell viability (ATP content); details: (24 or 48 h)
Method in brief: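 Library compounds were tested at 8 final concentrations (0.5 nM to 46 µM) on MTT mouse pheochromocytoma cells for 24 or 48 hrs, with readout by CellTiter-Glo ATP luminescence. Signals were normalised with positive-control wells at 100% and DMSO wells at 0%. IC50 values were obtained by a four-parameter logistic fit.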

Row | Compound | IC50 of cell viability
1 | CCC1OC(=O)C[C@H](O)C(C)[C@@H](O[C@@H]2OC(C)C(O)[C@H](N(C)C)C2O)C(CCN2CC(C)CC(C)C2)CC(C)C(=O)/C=C/C(C)=C\[C@@H]1COC1OC(C)C(O)C(OC)C1OC (stereo not given in full) [TILMICOSIN] | > 46 µM
2 | CC(C)(C)NCC(O)c1cc(Cl)c(N)c(C(F)(F)F)c1 (stereo not given) [MABUTEROL HYDROCHLORIDE] | > 46 µM
3 | NC(=O)c1cccnc1 [Niacinamide] | > 46 µM
4 | CN1CCN([C@@H](c2ccccc2)c2ccc(Cl)cc2)CC1 [(1-[(4-Chlorophenyl)phenyl-methyl]-4-methylpiperazine)] | > 46 µM
5 | CCCCCCCCCCCCCCCCCCO [STEARLY ALCOHOL] | > 46 µM
6 | CN(C)CCN1C(=O)c2ccccc2N(C)c2ccccc21 [Dibenzepina] | > 46 µM
7 | C[C@]12C=CC(=O)C=C1[C@@H](F)C[C@@H]1[C@@H]2[C@@H](O)C[C@@]2(C)[C@H]1CC[C@]2(O)C(=O)CO [Fluprednisolone] | > 46 µM
8 | CCOc1cc(CC(=O)N[C@@H](CC(C)C)c2ccccc2N2CCCCC2)ccc1C(=O)O [Repaglinide] | > 46 µM
9 | O=C(O)CCNC(=O)c1ccccc1 [BETAMIPRON] | > 46 µM
10 | CCN(CC)CCc1nc(-c2ccccc2)no1.O=C(O)CC(O)(CC(=O)O)C(=O)O [Oxalamine citrate salt] | > 46 µM
11 | CC1=C(NNC(=O)C1)C2=CC=C(N\N=C(\C#N)C#N)C=C2 [SIMENDANUM] | > 46 µM
12 | O=C(COc1ccc(Cl)cc1)OCCNC12C[C@H]3C[C@@H](C1)C[C@@H](C2)C3 [Adafenoxate] | > 46 µM
13 | CN(C)CCCN1c2ccccc2C(C)(C)c2ccccc21 [Dimetacrine] | > 46 µM
14 | CC(=O)O[C@@H](C)C(=O)OCC[N+](C)(C)C.CC(=O)O[C@@H](C)C(=O)OCC[N+](C)(C)C.O=S(=O)([O-])c1cccc2c(S(=O)(=O)[O-])cccc12 [Aclatonium Napadisilate] | > 46 µM
15 | C[N+](C)(CCCCCC[N+](C)(C)C1c2ccccc2-c2ccccc21)C1c2ccccc2-c2ccccc21 [Hexafluorenium dibromide] | > 46 µM
16 | CN[C@@H]1[C@H](O[C@H]2[C@H](O[C@H]3[C@H](O)[C@@H](O)[C@H](NC(=N)N)[C@@H](O)[C@@H]3NC(=N)N)O[C@@H](C)[C@]2(O)C=O)O[C@@H](CO)[C@H](O)[C@H]1O [Streptomycin sulfate] | > 46 µM
17 | C[N+](C)(C)CCCCCC[N+](C)(C)C [HEXAMETHONIUM] | > 46 µM
18 | CN(C)[C@@H](Cc1ccccc1)c1ccccc1 [LEFETAMINE HYDROCHLORIDE] | > 46 µM
19 | C=C(C)[C@@H]1C2OC(=O)C1[C@]1(O)C[C@H]3O[C@]34C(=O)O[C@H]2[C@]14C.CC(C)(O)[C@@H]1C2OC(=O)[C@@H]1[C@]1(O)C[C@H]3O[C@]34C(=O)O[C@H]2[C@]14C [Picrotoxin] | > 46 µM
20 | CC(C)N1CCN(c2ccc(OC[C@@H]3CO[C@@](Cn4cncn4)(c4ccc(Cl)cc4Cl)O3)cc2)CC1 [Terconazole] | > 46 µM
21 | CCCCCl [n-Butyl chloride] | > 46 µM
22 | CC(O)(P(=O)(O)O)P(=O)(O)O [ETIDRONATE DISODIUM] | > 46 µM
23 | C[N@+]1([O-])[C@@H]2CC[C@@H]1C[C@@H](OC(=O)[C@@H](CO)c1ccccc1)C2 [Atropine-N-oxide hydrochloride] | > 46 µM
24 | CCOc1ccc(S(=O)(=O)O)c2cccnc12 [Actinoquinolum] | > 46 µM
25 | O=C(O)c1cccnc1Nc1cccc(C(F)(F)F)c1 [NIFLUMIC ACID] | > 46 µM
